Counter-ions that a name gives are not always drawn. Like-named read-outs stand apart in the source and are kept apart here.
How the values were obtained:
Assay in all cases: AK assay 384-well format, Prestwick library screening
E. faecium = type: cell-based, Enterococcus faecium; settings: 50 μM final drug concentration; for fold induction at 50 µM: Enterococcus faecium, 3 h
E. cloacae = type: cell-based, Enterobacter cloacae; settings: 50 μM final drug concentration; for fold induction at 50 µM: Enterobacter cloacae, 3 h
P. aeruginosa = type: cell-based, Pseudomonas aeruginosa; settings: 50 μM final drug concentration; for fold induction at 50 µM: Pseudomonas aeruginosa, 3 h
E. coli = type: cell-based, Escherichia coli; settings: 50 μM final drug concentration; for fold induction at 50 µM: Escherichia coli, 3 h
[1] = tested on: A. baumannii strain 98-37-09; type: cell-based, Acinetobacter baumannii; settings: 50 μM final drug concentration; for fold induction at 50 µM: Acinetobacter baumannii, 983709, 3 h
[2] = tested on: S. aureus strain USA300-0114; type: cell-based, Staphylococcus aureus; settings: 50 μM final drug concentration; for fold induction at 50 µM: Staphylococcus aureus, USA300, 3 h
K. pneumoniae = type: cell-based, Klebsiella pneumoniae; settings: 50 μM final drug concentration; for fold induction at 50 µM: Klebsiella pneumoniae, 3 h
[3] = planktonic, cutoff for positive-scoring molecules 3-fold increase, read-out: AK-based Prestwick Library Screening Results, E. faecium (fold increase in extracellular AK activity)
[4] = planktonic, cutoff for positive-scoring molecules 3-fold increase, read-out: AK-based Prestwick Library Screening Results, E. cloacae (fold increase in extracellular AK activity)
[5] = planktonic, cutoff for positive-scoring molecules 3-fold increase, read-out: AK-based Prestwick Library Screening Results, P. aeruginosa (fold increase in extracellular AK activity)
[6] = planktonic, cutoff for positive-scoring molecules 3-fold increase, read-out: AK-based Prestwick Library Screening Results, E. coli (fold increase in extracellular AK activity)
[7] = planktonic, cutoff for positive-scoring molecules 3-fold increase, read-out: AK-based Prestwick Library Screening Results, A. baumannii (fold increase in extracellular AK activity)
[8] = planktonic, cutoff for positive-scoring molecules 3-fold increase, read-out: AK-based Prestwick Library Screening Results, S. aureus (fold increase in extracellular AK activity)
[9] = planktonic, cutoff for positive-scoring molecules 3-fold increase, read-out: AK-based Prestwick Library Screening Results, K. pneumoniae (fold increase in extracellular AK activity)
[10] = cutoff for positive-scoring molecules 3-fold increase, read-out: AK-based Prestwick Library Screening Results, E. faecium (fold increase in extracellular AK activity)
[11] = cutoff for positive-scoring molecules 3-fold increase, read-out: AK-based Prestwick Library Screening Results, E. cloacae (fold increase in extracellular AK activity)
[12] = cutoff for positive-scoring molecules 3-fold increase, read-out: AK-based Prestwick Library Screening Results, P. aeruginosa (fold increase in extracellular AK activity)
[13] = cutoff for positive-scoring molecules 3-fold increase, read-out: AK-based Prestwick Library Screening Results, E. coli (fold increase in extracellular AK activity)
[14] = cutoff for positive-scoring molecules 3-fold increase, read-out: AK-based Prestwick Library Screening Results, A. baumannii (fold increase in extracellular AK activity)
[15] = cutoff for positive-scoring molecules 3-fold increase, read-out: AK-based Prestwick Library Screening Results, S. aureus (fold increase in extracellular AK activity)
[16] = cutoff for positive-scoring molecules 3-fold increase, read-out: AK-based Prestwick Library Screening Results, K. pneumoniae (fold increase in extracellular AK activity)

## COc1cc2cc3c4cc(OC)c(OC)cc4cc[n+]3c(C)c2cc1OC.O.[Cl-] [Coralyne chloride hydrate]
E. faecium; planktonic E. faecium, cutoff for positive-scoring molecules 3-fold increase
  AK-based Prestwick Library Screening Results, E. faecium (increase in extracellular AK activity): 0.9
E. cloacae; planktonic E. cloacae, cutoff for positive-scoring molecules 3-fold increase
  AK-based Prestwick Library Screening Results, E. cloacae (increase in extracellular AK activity): 1.1
P. aeruginosa; planktonic P. aeruginosa, cutoff for positive-scoring molecules 3-fold increase
  AK-based Prestwick Library Screening Results, P. aeruginosa (increase in extracellular AK activity): 0.8
E. coli; planktonic E. coli, […]
  AK-based Prestwick Library Screening Results, E. coli (increase in extracellular AK activity): 0.9
[1]; planktonic A. baumannii, cutoff for positive-scoring molecules 3-fold increase
  AK-based Prestwick Library Screening Results, A. baumannii (increase in extracellular AK activity): 0.8
[2]; planktonic S. aureus, cutoff for positive-scoring molecules 3-fold increase
  AK-based Prestwick Library Screening Results, S. aureus (increase in extracellular AK activity): 0.4
K. pneumoniae; planktonic K. pneumoniae, cutoff for positive-scoring molecules 3-fold increase
  AK-based Prestwick Library Screening Results, K. pneumoniae (increase in extracellular AK activity): 0.6

## CC(=O)/N=c1/sc(S(N)(=O)=O)nn1C [Methazolamide]
E. faecium; [3]
  fold induction at 50 µM: 1.5
E. cloacae; [4]
  fold induction at 50 µM: 0.7
P. aeruginosa; [5]
  fold induction at 50 µM: 0.6
E. coli; [6]
  fold induction at 50 µM: 0.5
[1]; [7]
  fold induction at 50 µM: 0.5
[2]; [8]
  fold induction at 50 µM: 0.6
K. pneumoniae; [9]
  fold induction at 50 µM: 0.5

## CCC(=O)O[C@]1(C(=O)CCl)[C@@H](C)C[C@H]2[C@@H]3CCC4=CC(=O)C=C[C@]4(C)[C@@]3(F)[C@@H](O)C[C@@]21C [Clobetasol propionate]
E. faecium; [10]
  fold induction at 50 µM: 1
E. cloacae; [11]
  fold induction at 50 µM: 1.3
P. aeruginosa; [12]
  fold induction at 50 µM: 1.1
E. coli; [13]
  fold induction at 50 µM: 1.2
[1]; [14]
  fold induction at 50 µM: 1.3
[2]; [15]
  fold induction at 50 µM: 0.9
K. pneumoniae; [16]
  fold induction at 50 µM: 1

## Cc1nc2n(c(=O)c1CCN1CCC(c3noc4cc(F)ccc34)CC1)CCCC2 [Risperidone]
E. faecium; planktonic E. faecium, […], read-out: AK-based Prestwick library screening result, E. faecium (fold increase in extracellular AK activity)
  fold induction at 50 µM: 1
E. cloacae; planktonic E. cloacae, […], read-out: AK-based Prestwick library screening result, E. cloacae (fold increase in extracellular AK activity)
  fold induction at 50 µM: 1.3
P. aeruginosa; planktonic P. aeruginosa, […], read-out: AK-based Prestwick library screening result, P. aeruginosa (fold increase in extracellular AK activity)
  fold induction at 50 µM: 1.1
E. coli; planktonic E. coli, […], read-out: AK-based Prestwick library screening result, E. coli (fold increase in extracellular AK activity)
  fold induction at 50 µM: 1.1
[1]; planktonic A. baumannii, […], read-out: AK-based Prestwick library screening result, A. baumannii (fold increase in extracellular AK activity)
  fold induction at 50 µM: 1.5
[2]; planktonic S. aureus, […], read-out: AK-based Prestwick library screening result, S. aureus (fold increase in extracellular AK activity)
  fold induction at 50 µM: 1.3
K. pneumoniae; planktonic K. pneumoniae, […], read-out: AK-based Prestwick library screening result, K. pneumoniae (fold increase in extracellular AK activity)
  fold induction at 50 µM: 1.1

## Cc1cc2c(cc1S(N)(=O)=O)S(=O)(=O)CCC2 [Meticrane]
E. faecium; 384-well format, […], read-out: AK-based Prestwick Library Screening Results, E. faecium (increase in extracellular AK activity)
  fold induction at 50 µM: 0.9
E. cloacae; 384-well format, […], read-out: AK-based Prestwick Library Screening Results, E. cloacae (increase in extracellular AK activity)
  fold induction at 50 µM: 0.7
P. aeruginosa; 384-well format, […], read-out: AK-based Prestwick Library Screening Results, P. aeruginosa (increase in extracellular AK activity)
  fold induction at 50 µM: 0.6
E. coli; 384-well format, […], read-out: AK-based Prestwick Library Screening Results, E. coli (increase in extracellular AK activity)
  fold induction at 50 µM: 0.6
[1]; 384-well format, […], read-out: AK-based Prestwick Library Screening Results, A. baumannii (increase in extracellular AK activity)
  fold induction at 50 µM: 0.8
[2]; 384-well format, […], read-out: AK-based Prestwick Library Screening Results, S. aureus (increase in extracellular AK activity)
  fold induction at 50 µM: 0.8
K. pneumoniae; 384-well format, […], read-out: AK-based Prestwick Library Screening Results, K. pneumoniae (increase in extracellular AK activity)
  fold induction at 50 µM: 0.5

## CC1(C)[C@@H](OC(=O)CCC(=O)O)CC[C@]2(C)[C@H]3C(=O)C=C4[C@@H]5C[C@@](C)(C(=O)O)CC[C@]5(C)CC[C@@]4(C)[C@]3(C)CC[C@@H]12 [Carbenoxolone disodium salt]
E. faecium; [3]
  fold induction at 50 µM: 0.9
E. cloacae; [4]
  fold induction at 50 µM: 1.4
P. aeruginosa; [5]
  fold induction at 50 µM: 0.9
E. coli; [6]
  fold induction at 50 µM: 0.8
[1]; [7]
  fold induction at 50 µM: 1.1
[2]; [8]
  fold induction at 50 µM: 1.6
K. pneumoniae; [9]
  fold induction at 50 µM: 0.7

## CCOc1cc(CC(=O)N[C@@H](CC(C)C)c2ccccc2N2CCCCC2)ccc1C(=O)O [Repaglinide]
E. faecium; [10]
  fold induction at 50 µM: 0.9
E. cloacae; [11]
  fold induction at 50 µM: 0.4
P. aeruginosa; [12]
  fold induction at 50 µM: 0.4
E. coli; [13]
  fold induction at 50 µM: 0.4
[1]; [14]
  fold induction at 50 µM: 0.4
[2]; [15]
  fold induction at 50 µM: 0.3
K. pneumoniae; [16]
  fold induction at 50 µM: 0.4

## CCC1(CC)C(=O)C=CNC1=O [Pyrithyldione]
E. faecium; planktonic, […], read-out: AK-based Prestwick Library Screening Results, E. faecium (fold increase in extracellular AK activity)
  fold induction at 50 µM: 0.8
E. cloacae; planktonic, […], read-out: AK-based Prestwick Library Screening Results, E. cloacae (fold increase in extracellular AK activity)
  fold induction at 50 µM: 0.7
P. aeruginosa; planktonic, […], read-out: AK-based Prestwick Library Screening Results, P. aeruginosa (fold increase in extracellular AK activity)
  fold induction at 50 µM: 0.6
E. coli; planktonic, […], read-out: AK-based Prestwick Library Screening Results, E. coli (fold increase in extracellular AK activity)
  fold induction at 50 µM: 0.7
[1]; planktonic, […], read-out: AK-based Prestwick Library Screening Results, A. baumannii (fold increase in extracellular AK activity)
  fold induction at 50 µM: 0.5
[2]; planktonic, […], read-out: AK-based Prestwick Library Screening Results, S. aureus (fold increase in extracellular AK activity)
  fold induction at 50 µM: 0.6
K. pneumoniae; planktonic, […], read-out: AK-based Prestwick Library Screening Results, K. pneumoniae (fold increase in extracellular AK activity)
  fold induction at 50 µM: 0.6

## Cc1c(NC(=O)c2cccnc2)c(=O)n(-c2ccccc2)n1C [Nifenazone]
E. faecium; planktonic E. faecium, 384-well, cutoff for positive-scoring molecules 3-fold increase, read-out: AK-based Prestwick Library Screening Results: E. faecium (increase in extracellular AK activity)
  fold induction at 50 µM: 1
E. cloacae; planktonic E. cloacae, 384-well, cutoff for positive-scoring molecules 3-fold increase, read-out: AK-based Prestwick Library Screening Results: E. cloacae (increase in extracellular AK activity)
  fold induction at 50 µM: 1.2
P. aeruginosa; planktonic P. aeruginosa, 384-well, cutoff for positive-scoring molecules 3-fold increase, read-out: AK-based Prestwick Library Screening Results: P. aeruginosa (increase in extracellular AK activity)
  fold induction at 50 µM: 1.2
E. coli; planktonic E. coli, 384-well, cutoff for positive-scoring molecules 3-fold increase, read-out: AK-based Prestwick Library Screening Results: E. coli (increase in extracellular AK activity)
  fold induction at 50 µM: 1.2
[1]; planktonic A. baumannii, 384-well, cutoff for positive-scoring molecules 3-fold increase, read-out: AK-based Prestwick Library Screening Results: A. baumannii (increase in extracellular AK activity)
  fold induction at 50 µM: 1.6
[2]; planktonic S. aureus, 384-well, cutoff for positive-scoring molecules 3-fold increase, read-out: AK-based Prestwick Library Screening Results: S. aureus (increase in extracellular AK activity)
  fold induction at 50 µM: 1.3
K. pneumoniae; planktonic K. pneumoniae, 384-well, cutoff for positive-scoring molecules 3-fold increase, read-out: AK-based Prestwick Library Screening Results: K. pneumoniae (increase in extracellular AK activity)
  fold induction at 50 µM: 1

Reference: patent US10004701B2, “Methods and compositions for treating infection” (UNIVERSITY OF ROCHESTER, priority 2012, dated 2018)
